Assay results published in ChEMBL document CHEMBL1135210, “Succinimide hydroxamic acids as potent inhibitors of histone deacetylase (HDAC)” (Bioorg Med Chem Lett, 2002).

Legend:
Histone deacetylase = test: Concentration required to inhibit Histone Deacetylase (HDAC) from K562 erythroleukemia cells; type: cell-based, Homo sapiens
HT-1080 = test: Concentration required for the antiproliferation of Human HT1080 fibrosarcoma cells; type: functional, cell-based
cells = type: functional; settings: Homo sapiens, MDA435
Description: Concentration required for the antiproliferation of Human MDA-435 breast carcinoma cells

SMILES | IC50 (Histone deacetylase) [nM] | IC50 (HT-1080) [nM] | IC50 (cells) [nM]
O=C(CCCCCNC(=O)[C@H](Cc1ccccc1)N1CCCC1=O)NO | > 5000 | – | –
CCC[C@H]1C(=O)N([C@@H](Cc2ccc(OC)cc2)C(=O)NCCCCCC(=O)NO)C(=O)[C@@H]1CC(C)C | 38 | 530 | 180
CC(C)C[C@H]1C(=O)N([C@@H](Cc2ccccc2)C(=O)NCCCCCC(=O)NO)C(=O)C12CCCC2 | 66 | 1500 | 700
CC(C)C[C@@H]1CC(=O)N([C@@H](CC2CCCCC2)C(=O)NCCCCCC(=O)NO)C1=O | 640 | – | –
CC(C)C[C@@H]1CC(=O)N(CC(=O)NCCCCCC(=O)NO)C1=O | 5000 | – | –
CCC[C@H]1C(=O)N([C@@H](Cc2ccccc2)C(=O)NCCCCCC(=O)NO)C(=O)[C@@H]1CC(C)C | 51 | 400 | 570
CC(C)C[C@H]1C(=O)N2C[C@@H]1CCCCCOc1ccc(cc1)C[C@H]2C(=O)NCCCCCC(=O)NO | 38 | 250 | 150
CC(C)C[C@H]1CN[C@H](C(=O)NCCCCCC(=O)NO)Cc2ccc(cc2)OCCCCC[C@H]1C(=O)OC(C)(C)C | 2.1 | – | –
O=C(CCCCCNC(=O)[C@H](Cc1ccccc1)N1C(=O)CCC1=O)NO | 660 | 14000 | 10000
CC(C)C[C@@H]1CC(=O)N([C@@H](Cc2ccccc2)C(=O)NCCCCCC(=O)NO)C1=O | 99 | 2300 | 670
CNCC(=O)[C@@H](Cc1ccccc1)NC(=O)CCCCCCC(=O)NO | 1400 | – | –
